{"source": "patent US11179364B2", "about": "“Licofligozin for the treatment of non-alcoholic steatohepatitis” (NOVARTIS AG, priority 2017, dated 2021)", "key": {"[1]": {"conditions": "rat, in vivo"}, "[2]": {"assay": "Excretion of [14C] LIK066-related radioactivity in rats", "assay_type": "in vivo"}, "[3]": {"assay": "Dose/exposure-response analysis from completed clinical studies", "assay_type": "in vivo, human", "method": "The primary efficacy endpoint for dose/exposure-response analysis for LIK066, from previously completed clinical studies, was body weight loss, and other pharmacodynamic endpoints such as urinary and plasma glucose. The estimated ED50 and ED90 of LIK066 based on once a day dosing were approximately 5 mg and 50 mg, respectively, based on a body weight loss model. The estimated ED50 and ED90 based on other relevant pharmacodynamics endpoints such as urinary and plasma glucose were approximately 3-10 mg and 30-100 mg, respectively. […] Therefore this dose is tested first, with introduction of the 30 mg dose later to assure futility evaluation prior to enrollment of the entire cohort for the study. […] The diarrhea associated with LIK066 could be mitigated by dietary modification such as reduction in carbohydrate intake. Body weight loss is an important factor in therapeutic development for NASH as weight loss through either bariatric surgery or life style modification deters progression of the disease."}, "[4]": {"assay": "Oral toxicity studies in rats"}, "[5]": {"system": "other glucose transporters (GLUTs)", "assay": "Selectivity against other glucose transporters", "assay_type": "biochemical"}, "[6]": {"assay": "Tissue distribution study in rats", "assay_type": "in vivo"}, "SGLT1": {"target": "T1, SGLT1 (Homo sapiens, UniProt P13866)", "T1 sequence (P13866 1-664)": "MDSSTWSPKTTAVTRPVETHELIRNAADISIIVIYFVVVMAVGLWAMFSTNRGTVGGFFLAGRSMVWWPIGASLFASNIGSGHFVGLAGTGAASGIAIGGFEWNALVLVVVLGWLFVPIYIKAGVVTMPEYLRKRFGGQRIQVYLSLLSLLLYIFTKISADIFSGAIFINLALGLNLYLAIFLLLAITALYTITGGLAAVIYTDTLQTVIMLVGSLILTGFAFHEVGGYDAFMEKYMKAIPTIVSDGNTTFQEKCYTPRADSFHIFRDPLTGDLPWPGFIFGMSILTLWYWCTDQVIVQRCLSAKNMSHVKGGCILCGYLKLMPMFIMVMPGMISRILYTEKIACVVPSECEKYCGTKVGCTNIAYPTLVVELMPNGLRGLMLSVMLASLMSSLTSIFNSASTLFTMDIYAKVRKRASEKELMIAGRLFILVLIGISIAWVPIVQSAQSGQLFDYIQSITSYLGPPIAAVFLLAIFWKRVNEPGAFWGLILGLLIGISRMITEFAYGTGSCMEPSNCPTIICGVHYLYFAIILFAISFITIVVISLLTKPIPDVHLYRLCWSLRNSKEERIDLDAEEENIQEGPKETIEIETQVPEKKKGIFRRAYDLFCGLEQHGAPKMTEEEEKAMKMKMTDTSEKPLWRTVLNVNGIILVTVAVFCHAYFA", "assay": "SGLT1 inhibition", "assay_type": "biochemical"}, "P-glycoprotein (P-gp)": {"target": "P-glycoprotein (P-gp) (Homo sapiens, UniProt P08183)", "sequence (P08183 whole entry)": "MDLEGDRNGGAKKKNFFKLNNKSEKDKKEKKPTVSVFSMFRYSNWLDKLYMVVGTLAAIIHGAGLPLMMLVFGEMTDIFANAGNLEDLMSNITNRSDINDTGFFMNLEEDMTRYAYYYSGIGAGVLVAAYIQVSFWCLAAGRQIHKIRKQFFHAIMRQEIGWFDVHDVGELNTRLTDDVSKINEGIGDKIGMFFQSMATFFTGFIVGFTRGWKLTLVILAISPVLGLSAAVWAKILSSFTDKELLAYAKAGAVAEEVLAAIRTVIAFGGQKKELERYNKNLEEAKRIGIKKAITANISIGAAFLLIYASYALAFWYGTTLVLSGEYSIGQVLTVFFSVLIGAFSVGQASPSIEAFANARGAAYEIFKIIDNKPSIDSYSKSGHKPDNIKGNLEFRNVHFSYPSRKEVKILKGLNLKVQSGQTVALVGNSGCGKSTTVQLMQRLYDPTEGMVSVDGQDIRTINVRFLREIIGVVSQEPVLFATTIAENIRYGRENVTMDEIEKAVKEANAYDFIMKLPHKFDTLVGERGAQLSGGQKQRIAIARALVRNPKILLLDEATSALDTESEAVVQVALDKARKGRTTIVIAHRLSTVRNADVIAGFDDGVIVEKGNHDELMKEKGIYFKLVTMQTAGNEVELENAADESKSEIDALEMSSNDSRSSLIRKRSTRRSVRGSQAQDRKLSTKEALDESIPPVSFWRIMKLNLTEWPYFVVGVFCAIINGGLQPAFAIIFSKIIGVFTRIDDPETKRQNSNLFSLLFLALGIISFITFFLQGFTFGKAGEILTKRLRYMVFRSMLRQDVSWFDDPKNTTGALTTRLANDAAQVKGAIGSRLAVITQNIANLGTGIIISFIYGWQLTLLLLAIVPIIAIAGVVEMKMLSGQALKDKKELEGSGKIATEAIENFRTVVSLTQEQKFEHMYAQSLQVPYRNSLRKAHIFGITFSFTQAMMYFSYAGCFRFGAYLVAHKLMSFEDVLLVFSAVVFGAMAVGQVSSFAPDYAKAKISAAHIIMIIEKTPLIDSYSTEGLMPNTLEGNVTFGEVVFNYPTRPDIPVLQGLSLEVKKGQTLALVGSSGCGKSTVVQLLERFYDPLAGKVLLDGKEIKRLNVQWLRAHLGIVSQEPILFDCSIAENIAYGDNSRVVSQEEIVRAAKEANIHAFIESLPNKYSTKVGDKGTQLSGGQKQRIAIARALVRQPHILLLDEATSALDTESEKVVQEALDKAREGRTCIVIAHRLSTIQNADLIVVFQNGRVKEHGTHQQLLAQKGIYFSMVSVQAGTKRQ", "assay": "P-glycoprotein substrate assessment", "assay_type": "in vitro ADME"}, "[7]": {"assay": "Single and multiple dose studies in healthy volunteers and T2DM patients", "assay_type": "in vivo, human"}, "[8]": {"assay": "In vitro pharmacokinetic drug interaction studies", "assay_type": "in vitro ADME"}, "[9]": {"assay": "Clinical pharmacokinetics", "conditions": "human, in vivo; read-out: pharmacokinetic elimination half-life"}, "[10]": {"assay": "12 week study in obese patients", "assay_type": "in vivo, human"}, "Permeability": {"assay": "Permeability", "assay_type": "in vitro ADME"}, "SGLT2": {"target": "T2, SGLT2 (Homo sapiens, UniProt P31639)", "T2 sequence (P31639 1-672)": "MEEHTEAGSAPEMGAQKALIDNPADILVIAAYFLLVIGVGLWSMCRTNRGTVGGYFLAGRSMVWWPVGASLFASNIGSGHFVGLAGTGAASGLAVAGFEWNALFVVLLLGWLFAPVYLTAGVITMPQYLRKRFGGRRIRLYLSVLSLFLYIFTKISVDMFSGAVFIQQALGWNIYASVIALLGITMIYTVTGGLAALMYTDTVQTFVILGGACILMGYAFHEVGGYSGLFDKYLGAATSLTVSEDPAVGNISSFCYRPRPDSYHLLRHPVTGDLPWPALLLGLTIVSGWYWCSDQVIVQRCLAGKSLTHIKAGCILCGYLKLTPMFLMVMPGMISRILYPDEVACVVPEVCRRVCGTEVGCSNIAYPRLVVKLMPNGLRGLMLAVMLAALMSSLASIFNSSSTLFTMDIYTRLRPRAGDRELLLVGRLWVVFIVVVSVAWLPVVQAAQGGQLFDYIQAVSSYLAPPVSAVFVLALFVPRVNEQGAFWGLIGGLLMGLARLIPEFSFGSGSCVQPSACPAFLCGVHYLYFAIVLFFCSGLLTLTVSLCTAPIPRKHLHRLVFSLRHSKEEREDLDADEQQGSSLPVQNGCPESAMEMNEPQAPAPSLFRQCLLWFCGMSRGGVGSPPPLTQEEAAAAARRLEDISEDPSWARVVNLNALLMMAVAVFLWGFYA", "assay": "SGLT2 inhibition", "assay_type": "biochemical"}, "Solubility": {"assay": "Solubility", "assay_type": "physicochemical"}, "human hepatocytes": {"system": "human hepatocytes", "assay": "Clearance pathways in human hepatocytes", "assay_type": "in vitro ADME"}, "hERG": {"target": "hERG (Homo sapiens, UniProt Q12809)", "sequence (Q12809 whole entry)": "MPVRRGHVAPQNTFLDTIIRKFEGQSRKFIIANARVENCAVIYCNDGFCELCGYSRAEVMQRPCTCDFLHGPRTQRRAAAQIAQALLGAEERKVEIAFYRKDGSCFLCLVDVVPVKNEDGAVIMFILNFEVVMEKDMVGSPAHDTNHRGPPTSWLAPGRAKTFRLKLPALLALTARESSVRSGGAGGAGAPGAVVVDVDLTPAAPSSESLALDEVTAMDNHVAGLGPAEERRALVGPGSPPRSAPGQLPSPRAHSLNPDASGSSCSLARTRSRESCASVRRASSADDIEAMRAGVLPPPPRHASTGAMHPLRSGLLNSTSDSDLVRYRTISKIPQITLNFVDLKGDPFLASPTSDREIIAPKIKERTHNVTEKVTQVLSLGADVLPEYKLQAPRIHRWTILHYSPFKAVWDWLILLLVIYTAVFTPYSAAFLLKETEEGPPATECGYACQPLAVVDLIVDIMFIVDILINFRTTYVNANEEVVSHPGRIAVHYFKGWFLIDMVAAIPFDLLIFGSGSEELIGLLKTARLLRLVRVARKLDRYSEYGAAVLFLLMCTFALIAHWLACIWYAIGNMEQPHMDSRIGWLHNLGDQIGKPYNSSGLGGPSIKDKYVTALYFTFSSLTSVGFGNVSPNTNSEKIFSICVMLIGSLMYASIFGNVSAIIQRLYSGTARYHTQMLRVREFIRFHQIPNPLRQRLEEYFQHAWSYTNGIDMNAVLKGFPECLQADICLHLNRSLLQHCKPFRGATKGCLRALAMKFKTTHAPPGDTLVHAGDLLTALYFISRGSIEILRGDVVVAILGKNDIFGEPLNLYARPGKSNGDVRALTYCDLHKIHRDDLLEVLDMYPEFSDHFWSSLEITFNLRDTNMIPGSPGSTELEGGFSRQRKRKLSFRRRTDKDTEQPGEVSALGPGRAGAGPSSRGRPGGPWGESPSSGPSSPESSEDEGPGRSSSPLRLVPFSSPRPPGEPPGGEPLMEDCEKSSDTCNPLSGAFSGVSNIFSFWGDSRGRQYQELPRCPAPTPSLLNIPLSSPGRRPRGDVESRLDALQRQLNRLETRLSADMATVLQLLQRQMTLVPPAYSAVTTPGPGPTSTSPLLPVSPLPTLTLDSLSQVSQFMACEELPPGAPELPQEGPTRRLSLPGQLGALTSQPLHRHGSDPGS", "assay": "hERG inhibitory activity", "assay_type": "biochemical", "conditions": "at the maximal soluble concentration (16 μM)"}, "[11]": {"assay": "Oral toxicity studies in dogs", "assay_type": "in vivo"}, "[12]": {"assay": "Dog pharmacokinetics, tablet vs solution, crossover", "assay_type": "in vivo", "conditions": "single dose of 50 mg/dog, dogs"}, "[13]": {"conditions": "once a day dosing, body weight loss model"}, "[14]": {"conditions": "urinary and plasma glucose endpoints"}}, "note": "Where two headings read alike, the source gives them in different places.", "data": [{"smiles": "CCc1ccc([C@@H]2O[C@H](CO)[C@@H](O)[C@H](O)[C@H]2O)cc1Cc1ccc2c(c1)OCCO2", "note": "[LIK066, (2S,3R,4R,5S,6R)-2-(3-((2,3-dihydrobenzo[b][1,4]dioxin-6-yl)methyl)-4-ethylphenyl)-6-(hydroxymethyl)tetrahydro-2H-pyran-3,4,5-triol]", "values": [{"measurement": "tolerated dose", "setting": "[1]; 4 weeks", "result": "up to 100 mg/kg"}, {"measurement": "tolerated dose", "setting": "[1]; 26 weeks", "result": "up to 30 mg/kg"}, {"measurement": "excretion of [14C] LIK066-related radioactivity", "setting": "[2]", "result": "excreted in both urine and feces, mainly as metabolites"}, {"measurement": "estimated ED50", "setting": "[3]; [13]", "result": "approximately 5 mg"}, {"measurement": "estimated ED90", "setting": "[3]; [13]", "result": "~50", "unit": "mg"}, {"measurement": "estimated ED50", "setting": "[3]; [14]", "result": "3 to 10", "unit": "mg"}, {"measurement": "estimated ED90", "setting": "[3]; [14]", "result": "30 to 100", "unit": "mg"}, {"measurement": "principal target organs of toxicity", "setting": "[4]; oral, rats, up to 26-weeks", "result": "gastrointestinal tract, kidney, urinary tract, bone, liver and adrenal glands"}, {"measurement": "NOAEL", "setting": "[4]; rat, in vivo, oral", "result": 5, "unit": "mg/kg/day"}, {"measurement": "body weight gain", "setting": "[4]; rats, at almost all doses", "result": "reduced body weight gain"}, {"measurement": "selectivity against other glucose transporters (GLUTs)", "setting": "[5]", "result": "high selectivity"}, {"measurement": "distribution to the central nervous system and reproductive organs", "setting": "[6]", "result": "relatively low distribution"}, {"measurement": "inhibition of SGLT1", "setting": "SGLT1", "result": "potent inhibitor"}, {"measurement": "P-glycoprotein (P-gp) substrate", "setting": "P-glycoprotein (P-gp)", "result": "is a substrate"}, {"measurement": "safety and tolerability", "setting": "[7]; healthy volunteers and patients with T2DM", "result": "safe and tolerated"}, {"measurement": "pharmacokinetic profile", "setting": "[7]; human, in vivo", "result": "favorable"}, {"measurement": "placebo-adjusted weight loss", "setting": "[7]; over 2 weeks, healthy subjects and patients with T2DM", "result": "up to 3%"}, {"measurement": "glucose AUC after an oral glucose tolerance test (OGTT)", "setting": "[7]; patients with T2DM", "result": "significantly lowered"}, {"measurement": "glucosuria", "setting": "[7]; single and multiple doses, healthy volunteers and patients with T2DM", "result": "induced glucosuria"}, {"measurement": "potential to act as a perpetrator of pharmacokinetic drug interactions", "setting": "[8]", "result": "low potential"}, {"measurement": "half-life", "setting": "[9]", "result": "10 to 16", "unit": "h"}, {"measurement": "weight loss", "setting": "[10]; 150 mg daily dose (qd, b.i.d or tid), obese patients, 12 week treatment", "result": "~6", "unit": "%"}, {"measurement": "weight loss", "setting": "[10]; 150 mg dose, previous phase 2 study", "result": "significant weight loss"}, {"measurement": "dose-limiting toxicity / primary AE", "setting": "[10]; 150 mg qd, twelve weeks", "result": "diarrhea"}, {"measurement": "safety and tolerability", "setting": "[10]; 150 mg qd, twelve weeks, normoglycemic and dysglycemic subjects / obese patients", "result": "generally safe and well tolerated"}, {"measurement": "permeability", "setting": "Permeability", "result": "good permeability"}, {"measurement": "inhibition of SGLT2", "setting": "SGLT2", "result": "potent inhibitor"}, {"measurement": "solubility", "setting": "Solubility", "result": "good solubility"}, {"measurement": "predominant clearance pathway", "setting": "human hepatocytes", "result": "Direct glucuronidation (via the UDP-glucuronosyl transferase (UGT1A9))"}, {"measurement": "second clearance pathway (followed by)", "setting": "human hepatocytes", "result": "oxidative metabolism (CYP3A4)"}, {"measurement": "inhibitory hERG activity", "setting": "hERG", "result": "no significant inhibitory hERG activity"}, {"measurement": "NOAEL", "setting": "[11]; dog, in vivo, oral, read-out: no observed adverse effect level (NOAEL)", "result": 0.5, "unit": "mg/kg/day"}, {"measurement": "body weight gain", "setting": "[11]; dogs, at almost all doses", "result": "reduced body weight gain"}, {"measurement": "doses not tolerated", "setting": "[11]; dogs, prolonged periods (≥6 weeks), body weight loss, fecal changes and dehydration", "result": "≥ 10", "unit": "mg/kg"}, {"measurement": "principal target organs of toxicity", "setting": "[11]; oral, dogs, up to 13-weeks", "result": "gastrointestinal tract, kidney, urinary tract, bone, liver and adrenal glands"}, {"measurement": "pharmacokinetics, tablet vs solution formulations", "setting": "[12]", "result": "comparable"}]}]}
